Legend:
[1] = test system: Pseudoalteromonas lipolytica (TC8); experiment: Anti-adhesion test, strain TC8; assay type: cell-based; details: Pseudoalteromonas lipolytica; for activity at 200 µM: 15 h, read-out: % of adhesion at 200 μM, TC8; for EC50: read-out: EC50 (effective concentration to inhibit 50% of the adhesion), TC8
Description: (§1) The anti-adhesion bioassays and toxicity tests are adapted from those disclosed in M. Camps, J.-F. Briand, L. Guentas-Dombrowsky, G. Culioli, A. Bazire and Y. Blache, Mar. Poll.
(§2) Bacterial strains were grown on Väätänen nine-salts solution (VNSS). When the stationary phase was reached, the bacterial suspension was centrifuged. Cells were then diluted in sterile artificial sea water (ASW) and introduced in microtiter plates (sterile black PS; Nunc, Fisher Scientific, France) with the tested compound (at eight concentrations in three replicates) in the presence of three controls: (i) non-specific staining control, (ii) adhesion control, and (iii) positive control. The maximum percentage of solvent (DMSO 2%) used to dilute the tested compound was also tested in triplicate as additional control. After incubation during an optimized adhesion time (moderately 15 h), non-adhered bacteria were eliminated and adhered cells were quantified after SYTO 61 (1 μM) staining. A percentage of inhibition was calculated per well. A sigmoid dose-response curve was obtained by plotting the percentage of inhibition as a function of the log of tested compound concentration, after mean (n=3) and standard deviation (SD) calculation per triplicate for each concentration. EC50 values were then calculated for each compound.

[2] = test system: marine bacterial strains (TC14, TC8, 4M6, TC5 and TC11); experiment: Anti-adhesion test, summary over the strains; assay type: cell-based; details: read-out: inhibition of the adhesion of at least two marine bacterial strains
Description: as §2
In examples 64 and 65, the following marine bacterial strains are used.

[3] = test system: Pseudoalteromonas ulvae (TC14); experiment: Anti-adhesion test, strain TC14; assay type: cell-based; details: Pseudoalteromonas ulvae; for activity at 200 µM: 15 h; for EC50: read-out: EC50 (effective concentration to inhibit 50% of the adhesion)
Description: as §2
Pseudoalteromonas ulvae (TC14) was isolated in June 2010 in the Military Harbor of Toulon (Mediterranean Sea, France) as described in F. Brian-Jaisson, A. Ortalo-Magné, L. Guentas-Dombrowsky, F. Armougom, Y. Blache, M. Molmeret, Microb. Ecol., 2014, 68, 94-110.

Paracoccus sp. (4M6) = experiment: Anti-adhesion test, strain 4M6; assay type: cell-based; details: Paracoccus; for activity at 200 µM: 15 h, read-out: % of adhesion at 200 μM, 4M6; for EC50: read-out: EC50 (effective concentration to inhibit 50% of the adhesion), 4M6
Description: as §1, §2

Polaribacter sp. (TC5) = experiment: Anti-adhesion test, strain TC5; assay type: cell-based; details: for activity at 200 µM: 15 h; for EC50: read-out: EC50 (effective concentration to inhibit 50% of the adhesion)
Description: as §2
Polaribacter sp. (TC5) was isolated in June 2010 in the Military Harbor of Toulon (Mediterranean Sea, France) as described in F. Brian-Jaisson, A. Ortalo-Magné, L. Guentas-Dombrowsky, F. Armougom, Y. Blache, M. Molmeret, Microb. Ecol., 2014, 68, 94-110.

Shewanella sp. (TC11) = experiment: Anti-adhesion test, strain TC11; assay type: cell-based; details: for activity at 200 µM: 15 h, strain TC11, read-out: % of adhesion at 200 μM, TC11; for EC50: read-out: EC50 (effective concentration to inhibit 50% of the adhesion), strain TC11
Description: as §2
Shewanella sp. (TC11) was isolated in June 2010 in the Military Harbor of Toulon (Mediterranean Sea, France) as described in F. Brian-Jaisson, A. Ortalo-Magné, L. Guentas-Dombrowsky, F. Armougom, Y. Blache, M. Molmeret, Microb. Ecol., 2014, 68, 94-110.

[4] = Gravimetry (weight loss), corrosion inhibition; details: mild steel in 1N HCl
Description: The corrosion rates were determined by electrochemical impedance spectroscopy measurements and gravimetry.
Weight loss measurements were performed on 2.5×2.0×0.1 cm rectangular mild steel coupons. The mild steel coupons were immersed into non-de-aerated HCl 1N solution in absence and presence of different concentrations of compounds of general formula (I). After the elapsed time, the coupons were taken out, washed, dried and weighed accurately. Experiments were duplicated.
Weight loss experiments were done to confirm the corrosion inhibitive properties of AS164.
The inhibition efficiency, IE (%), was estimated from the weight loss experiments using the following equation:
[formula] wherein CR^o and CR are respectively the corrosion rate in the absence and presence of AS164.

Row | Compound | activity at 200 µM [1] | inhibition at 200 µM [2] | activity at 200 µM [3] | EC50 [3] | activity at 200 µM (Paracoccus sp. (4M6)) | EC50 (Paracoccus sp. (4M6)) | EC50 [1] | activity at 200 µM (Polaribacter sp. (TC5)) | EC50 (Polaribacter sp. (TC5)) | activity at 200 µM (Shewanella sp. (TC11)) | EC50 (Shewanella sp. (TC11)) | IE % ([4]; 0.1 ppm) | IE % ([4]; 0.3 ppm) | IE % ([4]; 0.5 ppm) | IE % ([4]; 2 ppm) | IE % ([4]; 10 ppm)
1 | Oc1ccc(CCn2cc(-c3ccc(-c4cn(CCc5ccc(O)c(Br)c5)nn4)cc3)nn2)cc1Br [NT23, 1,4 bis (1-(3-bromo-4-hydroxyphenethyl)-1H-1,2,3-triazol-4-yl) benzene] | 58.3 ± 8.7% | ≥ 65% | 31 ± 6.1% | 40.9 ± 11.4 µM | 31.8 ± 3.5% | 59.9 ± 7.7 µM | – | – | – | – | – | – | – | – | – | –
2 | COc1ccc(Cn2cc(-c3ccc(-c4cn(Cc5ccc(OC)c(Br)c5)nn4)cc3)nn2)cc1Br [SA8, 1-(3-bromo-4-methoxybenzyl)-4-(4-(1-(3-bromo-4-methoxybenzyl)-1H-1,2,3-triazol-4-yl)phenyl)-1H-1,2,3-triazole] | 24.1 ± 2.6% | – | 23.3 ± 3.8% | 99.5 ± 4.5 µM | 33.1 ± 4.4% | 163 ± 23.6 µM | 159 ± 28.5 µM | 38.3 ± 0.1% | 152 ± 6.7 µM | 16.4 ± 8% | 122 ± 7.1 µM | – | – | – | – | –
3 | CN(C)CCCOc1ccc(CCn2cc(-c3ccc(-c4cn(CCc5ccc(OCCCN(C)C)cc5)nn4)cc3)nn2)cc1 [SA12, 3-(4-(2-(4-(4-(1-(4-(3-(dimethylamino)propoxy)phenethyl)-1H-1,2,3-triazol-4-yl)phenyl)-1H-1,2,3-triazol-1-yl)ethyl)phenoxy)-N,N-dimethylpropan-1-amine] | 30 ± 21.9% | – | 42.4 ± 8.6% | 187 ± 16.5 µM | 14.3 ± 7.3% | 73.2 ± 10.7 µM | 177 ± 80.1 µM | 66.2 ± 2.8% | – | 41 ± 4.1% | 173 ± 22.4 µM | 39.30% | 69.97% | 94.65% | 96.89% | 95.73%
4 | CN(C)CCCOc1ccc(CCCn2cc(-c3ccc(-c4cn(CCCc5ccc(OCCCN(C)C)c(Br)c5)nn4)cc3)nn2)cc1Br [SA32, 3-(4-(3-(4-(4-(1-(3-(4-(3-(dimethylamino)propoxy)-3-bromophenyl)propyl)-1H-1,2,3-triazol-4-yl)phenyl)-1H-1,2,3-triazol-1-yl)propyl)-2-bromophenoxy)-N,N-dimethylpropan-1-amine] | 17.7 ± 11.1% | – | 34.3 ± 2.6% | 115 ± 20.5 µM | 26.7 ± 5.6% | 3.1 ± 8.6 µM | 109 ± 37.2 µM | 53.4 ± 13.8% | 114 ± 28.6 µM | 17.4 ± 2.9% | 61.1 ± 18.5 µM | 79.01% | 95.43% | 96.30% | 96.54% | 95.58%
5 | CN(C)CCOc1ccc(CCn2cc(-c3ccc(-c4cn(CCc5ccc(OCCN(C)C)c(I)c5)nn4)cc3)nn2)cc1I [SA45, 2-(4-(2-(4-(4-(1-(4-(2-(dimethylamino)ethoxy)-3-iodophenethyl)-1H-1,2,3-triazol-4-yl)phenyl)-1H-1,2,3-triazol-1-yl)ethyl)-2-iodophenoxy)-N,N-dimethylethanamine] | 30 ± 16.3% | – | 42.1 ± 2.9% | 175 ± 21.2 µM | 3.2 ± 4.6% | 14.2 ± 3.2 µM | 135 ± 34.3 µM | 37.5 ± 13.3% | 147 ± 32.4 µM | 9.3 ± 0.5% | 129 ± 13.2 µM | 78.07% | 93.01% | 94.67% | 95.23% | 96.09%
6 | CN(C)CCCOc1ccc(CCn2cc(-c3ccc(-c4cn(CCc5ccc(OCCCN(C)C)c(I)c5)nn4)cc3)nn2)cc1I [SA46, 3-(4-(2-(4-(4-(1-(4-(3-(dimethylamino)propoxy)-3-iodophenethyl)-1H-1,2,3-triazol-4-yl)phenyl)-1H-1,2,3-triazol-1-yl)ethyl)-2-iodophenoxy)-N,N-dimethylpropan-1-amine] | 17.4 ± 14.3% | – | 30.2 ± 3.5% | 74.4 ± 8.3 µM | 26.6 ± 3.4% | 48.3 ± 48.9 µM | 71.5 ± 4.1 µM | 22.4 ± 14.7% | 70.6 ± 8.9 µM | 5.8 ± 1.2% | 22.2 ± 13.6 µM | 82.23% | 90.47% | 94.51% | 96.05% | 94.96%
7 | CN(C)CCOc1ccc(-n2cc(-c3ccc(-c4cn(-c5ccc(OCCN(C)C)cc5)nn4)cc3)nn2)cc1 [SA61, 2-(4-(4-(4-(1-(4-(2-(dimethylamino)ethoxy)phenyl)-1H-1,2,3-triazol-4-yl)phenyl)-1H-1,2,3-triazol-1-yl)phenoxy)-N,N-dimethylethanamine] | 45.6 ± 1.2% | – | 47.8 ± 1.7% | 194 ± 13.7 µM | 40.2 ± 0.3% | 179 ± 44.9 µM | 184.4 ± 0.6 µM | 89.4 ± 0.8% | – | 19.3 ± 16.9% | 140 ± 63.5 µM | 87.42% | 91.92% | 94.34% | 95.55% | 95.93%
8 | CN(C)CCOc1ccc(CCn2cc(-c3ccc(-c4cn(CCc5ccc(OCCN(C)C)c(Cl)c5)nn4)cc3)nn2)cc1Cl [SA63, 2-(4-(2-(4-(4-(1-(4-(2-(dimethylamino)ethoxy)-3-chlorophenethyl)-1H-1,2,3-triazol-4-yl)phenyl)-1H-1,2,3-triazol-1-yl)ethyl)-2-chlorophenoxy)-N,N-dimethylethanamine] | 29 ± 3.2% | – | 30.6 ± 5.3% | 122 ± 10.7 µM | 43.6 ± 3.3% | 96.6 ± 36.2 µM | 138 ± 10.6 µM | 37.3 ± 6% | 133 ± 9.2 µM | 37 ± 1% | 136 ± 5.1 µM | 90.68% | 95.02% | 95.82% | 95.98% | 96.95%
9 | CN(C)CCCOc1ccc(CCn2cc(-c3ccc(-c4cn(CCc5ccc(OCCCN(C)C)c(Cl)c5)nn4)cc3)nn2)cc1Cl [SA64, 3-(4-(2-(4-(4-(1-(4-(3-(dimethylamino)propoxy)-3-chlorophenethyl)-1H-1,2,3-triazol-4-yl)phenyl)-1H-1,2,3-triazol-1-yl)ethyl)-2-chlorophenoxy)-N,N-dimethylpropan-1-amine] | 20.2 ± 21.1% | – | 28.4 ± 14% | 147 ± 14.4 µM | 31 ± 12.4% | 43.3 ± 14.6 µM | 121 ± 76.8 µM | 42.9 ± 4.5% | 150 ± 8.1 µM | 42.6 ± 5.6% | 152 ± 20.4 µM | 90.59% | 94.18% | 95.90% | 96.37% | 96.64%
10 | CN(C)CCCOc1ccc(-n2cc(-c3ccc(-c4cn(-c5ccc(OCCCN(C)C)c(Br)c5)nn4)cc3)nn2)cc1Br [SA66, 3-(4-(4-(4-(1-(4-(3-(dimethylamino)propoxy)-3-bromophenyl)-1H-1,2,3-triazol-4-yl)phenyl)-1H-1,2,3-triazol-1-yl)-2-bromophenoxy)-N,N-dimethylpropan-1-amine] | 31.7 ± 2.2% | – | 19 ± 6.5% | 104 ± 4.6 µM | 24.5 ± 6.9% | 44.2 ± 25.2 µM | 141 ± 16.5 µM | 23.3 ± 4% | 50.2 ± 10.9 µM | 45.5 ± 1.1% | 165 ± 37.8 µM | 85.79% | 88.30% | 90.41% | 95.16% | 96.48%
